In experiment [1] the test system is TSST-1 production by Staphylococcus aureus MN8. The experiment is classed as cell-based. The note with it: 24 hours at 35° C.
For the next experiment, the system named is S. aureus MN8. It is filed as cell-based, Staphylococcus aureus. The note with it: 24 hours at 35° C.

Laureth-4: the “TSST-1” value in experiment [1] is given as 531.8 ng/mL. The “Final [S. aureus]” value with S. aureus MN8 is 4.57 × 10^9 CFU/ml.
Taken in the same sequence, the figures for PPG-5 Laureth-5 were 609.2 ng/mL and 3.82 × 10^9 CFU/ml.
Regarding Steareth-2, in experiment [1], the “TSST-1” value came out at 680.7 ng/mL. Also, the “Final [S. aureus]” value in the experiment on S. aureus MN8 is reported as 5.76 × 10^9 CFU/ml.

These data come from patent US6676957B1 (priority 2000, dated 2004).
